In US11919856B2, “Compounds” (UCL BUSINESS LTD, priority 2018, dated 2024):

Assays:
Z α1-antitrypsin polymer = conditions: 2 weeks of dosing; Hidvegi et al. Science 2010; cited from earlier work
[1] = target: T1, Z-alpha-1-antitrypsin (Z-A1AT) (Homo sapiens, UniProt P01009, E366K/V237A); experiment: Inhibition of Z-alpha-1-antitrypsin polymerisation TR-FRET assay; type: biochemical; conditions: mean, 5 nM Z-A1AT, 72 hours at 37° C.
T1 construct: Z-alpha-1-antitrypsin was purified from human plasma; from tissue; host or cells: human plasma of ZZ homozygous donors
Excerpt: The potencies of the compounds of the invention for inhibition of Z-alpha-1-antitrypsin (Z-A1AT) polymerisation can be determined by a time-resolved fluorescence energy transfer (TR-FRET) assay performed on purified Z-A1AT as described herein. […] Mean activity data for the assay described below for compounds 1-4:
Inhibition of Z-Alpha-1-Antitrypsin Polymerisation Assay Protocol
Z-alpha-1-antitrypsin was purified from human plasma of donors homozygous for the Z-A1AT form. The purification was performed according to a published protocol (Lomas et al. Biochemistry 1993; 32:500-508) involving ammonium sulphate precipitation, thiol exchange fractionation, and anion exchange fractionation.
Purified Z-A1AT was diluted to 5 nM in PBS buffer with 0.01% Tween-20 and mixed with different concentrations of inhibitor compounds dissolved in DMSO, in 384-well assay plates. Following incubation for 72 hours at 37° C., the amount of Z-A1AT polymer was detected using a time-resolved fluorescence resonance energy transfer (TR-FRET) assay format, by adding an antibody detection mix to the assay plates. The detection mix contained an A1AT-polymer specific monoclonal antibody (Miranda et al. Hepatology 2010; 52: 1078-1088), Terbium-labelled anti-mouse antibody, a polyclonal rabbit anti-A1AT antibody, and an Alexa488-labelled anti-rabbit antibody. TR-FRET data were normalised to controls (DMSO vehicle control giving 0% inhibition, saturating concentrations of an active compound giving 100% inhibition), and IC50 values were derived by fitting 4-parameter logistic curves to the normalised data.
An antibody-based time-resolved fluorescence resonance energy transfer (TR-FRET) assay was used to monitor the polymerisation of 5 nM Z α1-antitrypsin following incubation with varying concentrations of compounds at 37° C. for 72 hours. This assay used the 2C1 monoclonal antibody that is specific to pathological polymers of α1-antitrypsin (Miranda et al. Hepatology 2010; 52: 1078-1088), a polyclonal antibody that binds to all forms of α1-antitrypsin, an anti-mouse IgG fluorescence donor (Eu-W1024) and an anti-rabbit IgG acceptor (APC).

T1 sequence (P01009 25-418 V237A/E366K): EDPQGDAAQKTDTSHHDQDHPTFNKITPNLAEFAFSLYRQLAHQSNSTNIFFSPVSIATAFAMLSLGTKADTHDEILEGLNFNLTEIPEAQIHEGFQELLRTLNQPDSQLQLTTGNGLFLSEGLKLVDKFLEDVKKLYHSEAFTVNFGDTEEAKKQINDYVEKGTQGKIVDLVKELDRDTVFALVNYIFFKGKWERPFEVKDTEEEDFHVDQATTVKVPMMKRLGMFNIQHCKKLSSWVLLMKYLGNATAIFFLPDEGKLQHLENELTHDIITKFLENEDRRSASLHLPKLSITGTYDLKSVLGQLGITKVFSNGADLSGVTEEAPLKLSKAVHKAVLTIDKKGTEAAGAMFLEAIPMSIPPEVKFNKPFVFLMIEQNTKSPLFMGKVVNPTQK

Compound | effects on liver polymer in Z α1-antitrypsin transgenic mice (Z α1-antitrypsin polymer) | IC50 [1]
NC(=O)N1c2ccccc2C=Cc2ccccc21 [Carbamazapine] | pronounced effects | 
CCC[C@@H](NC(=O)c1cccc2c1CC(=O)N2)[C@@H](O)c1cccc(Cl)c1C [Compound 2, N-((1S,2R)-1-(3-chloro-2-methylphenyl)-1-hydroxypentan-2-yl)-2-oxoindoline-4-carboxamide] |  | 2.51 nM
CCC[C@@H](NC(=O)c1ccc(F)c2c1CC(=O)N2)[C@@H](O)c1cccc(C#N)c1Cl [Compound 3, N-((1S,2R)-1-(2-chloro-3-cyanophenyl)-1-hydroxypentan-2-yl)-7-fluoro-2-oxoindoline-4-carboxamide] |  | 3.16 nM
CCC[C@@H](NC(=O)c1ccc(F)c2c1CC(=O)N2)[C@@H](O)c1cccc(F)c1Cl [Compound 4, N-((1S,2R)-1-(2-chloro-3-fluorophenyl)-1-hydroxypentan-2-yl)-7-fluoro-2-oxoindoline-4-carboxamide] |  | 6.31 nM
